Test results reported in US20220249525A1, “Fatty Acid Compounds for Prevention and Treatment of Neurodegenerative Disorders” (T OMEGA AS, priority 2019, published 2022).

Experiments:
Type in all cases: cell-based
[1] = test system: HCC827 cells; assay: Resazurin conversion cell viability/proliferation assay in HCC827 cells
Experimental: (§1) Non-small cell lung cancer cells, HCC827 (ATCC) were cultured in RPMI-1640 Glutamax medium (Sigma-Aldrich St. Louis, Mo., USA), under conventional culture conditions. Media was supplemented with 10% Fetal Bovine Serum (FBS), 1% glutamine and 1% streptomycin/penicillin (Sigma-Aldrich). HeLaNRF1/c4 reporter cells were cultured in Dulbecco's Modified Eagle's Medium (DMEM) supplemented with 10% FBS, 2 mM L-Glutamine, 100 u/ml penicillin/streptomycin (Sigma-Aldrich,). Incubation was done at 37° C. in 5% CO2.
(§2) Cell viability/proliferation was determined by the resazurin conversion assay. A total of 4000 cells were seeded in each of the 96-well plates in 100 μl of medium. After 3 hours of incubation, 100 μl of fresh medium with respective concentration of the desired compound or controls were added. Resazurin solution (Sigma-Aldrich) was added (10%, v/v in PBS) after 1 or 3 day treatment, followed by 3 hour incubation at 37° C. and 5% CO2. Resazurin fluorescence (excitation, 540 nm; emission, 590 nm) was measured and measurements were corrected for background signals. […] Relative viability was calculated from percent fluorescence relative to DMSO-treated control wells.

[2] = test system: HeLaNRF1/c4 reporter cells; assay: Resazurin conversion assay in HeLaNRF1/c4 reporter cells; details: test compounds 30 μM and 60 μM, long treatment
Experimental: as §1, §2
In order to investigate if some of the compounds induce metabolic adaptations involving mitochondrial biogenesis, we employed the HeLaNRF1/c4 reporter cells in which activation of the transcription factor NRF1 triggers expression of GFP. Since adaptations of mitochondrial biogenesis are known to require some days to develop, we used a relatively low dosage (30 μM and 60 μM) of the compounds, to allow longer treatment period compared to the previous short term experiments.

[3] = test system: HeLaNRF1/c4 reporter cells; assay: Gene expression (qPCR) in HeLaNRF1/c4 reporter cells; details: long-term treatment
Experimental: The HeLaNRF1/c4 reporter cells were employed to investigate effects of the modified fatty acids on NRF1-regulated mitochondrial biogenesis. The cells (250,000) were seeded in T75 flasks and incubated for 3 hours to allow attachment. The compounds were dissolved in DMSO and diluted in culture medium to provide the final concentration. DMSO at a concentration equivalent to the highest compound concentration was added to control cultures. Resveratrol and AICAR were used as positive controls. Resveratrol has not previously been tested in this reporter model, but we found it relevant to include it for purposes of experimental and mechanistic comparisons. After 3 days of treatment the media was replaced with fresh media containing the corresponding compound. On day 5, the cells were harvested and the cultures split into three fractions: One fraction was used for detection of mitoGFP expression by flow cytometry, to assess effects on NRF-1 regulated mitochondrial biogenesis. Flow cytometry analysis was performed as previously described. Another fraction was used for extraction of RNA and subsequent gene expression analysis using quantitative PCR (see below). The last fraction was employed to investigate effects on mitochondrial respiratory function by extracellular flux analysis (described above). The experiment was replicated three times.
Total RNA was extracted from harvested cells (RNAeasy kit Qiagen, Hilden, Germany). The RNA content was quantified on Nanodrop 1000 Spectrophotometer (Thermo Scientific). From 1 μg total RNA, cDNA was synthesized using High-Capacity Reverse Transcription Kit (Applied Biosystems, Carlsbad, Calif., US). Gene quantification was done using TaqMan probes for gene expression assays (Applied Biosystems). Probes used were: PGC1α (PPARG coactivator 1α), Hs00173304_m1; HIF1α (hypoxia inducible factor 1α), Hs00153153_m1; PDK1 (pyruvate dehydrogenase kinase 1), Hs01561847_m1; PDK4, (pyruvate dehydrogenase kinase 4), Hs01037712_m1; SIRT4 (sirtuin 4) Hs01015516_g1; ACOX1 (acyl-CoA oxidase 1) Hs01074241_m1; as reference genes, we used; Eukaryotic 18S rRNA Hs99999901_s1; actin beta Hs99999903_m1. Fold change was calculated as geometric mean of ΔΔCt of the two reference genes.

## CCCCCCCCCCCCCCNCC(=O)O [N-TTA, N-tetradecylglycine]
[1]; HCC827 cells, three different concentrations
  dose-dependent pattern of antiproliferative effects: dose-dependent pattern of antiproliferative effects was found
[1]; cultured cells, relatively high dosage
  overall effects on cell viability and mitochondrial function (summary): cytotoxic effects
[2]
  resazurin conversion: dose-dependent reduction
[3]
  PDK4 expression: significantly increased
[3]; vs control
  PGC1α expression: significant increase
